According to patent US20230184756A1, “BIOMATERIALS” (INSTITUTO DE MEDICINA MOLECULAR JOÃO LOBO ANTUNES, priority 2020, published 2023):
“Also recorded” adds a separate entry of the source. Blank lines part the entries; values can stand above or below the molecule they belong to. Peptide text beside a SMILES is read from it.

Legend:
[1] = Sample preparation: highest concentration at which the peptide fully dissolves; type: physicochemical; settings: for highest final concentration that they were able to be fully dissolved: 50 mM Tris-HCl pH 7.5, 5 mM EDTA buffer, room temperature
Protocol: STVIIE, GNNQQNY, QVQIIE and ISFLIF were prepared at the highest final concentration that they were able to be fully dissolved, respectively 1 mg/mL (STVIIE and GNNQQNY), 0.55 mg/mL (QVQIIE) and 0.1 mg/mL (ISFLIF). For all peptide samples the final incubation buffer was 50 mM Tris-HCl pH 7.5, 5 mM EDTA buffer. Briefly, after weighing the peptide, half of the final volume of H2O ultrapure was added. A short vortex of approximately 1500 rpm and 30 seconds and an ultrasound bath of 280 seconds in water/ice were performed two times. The other half of the final volume was then added, containing 100 mM Tris-HCl pH 7.5, 10 mM EDTA buffer was added, with the peptide samples being therefore in the final incubation buffer. Before incubation, two other cycles of vortex and ultrasound bath were performed. The final peptide solution sample was incubated at room temperature.

[2] = FTIR spectroscopy of secondary structure; type: physicochemical; settings: followed for 6 hours
Protocol: Following previous approaches^11,54, peptide samples were applied to the FTIR sample holder at 298.15 K. InfraRed spectra were recorded on a Bruker Tensor 27 infrared spectrophotometer (Bruker Optik GmbH, Ettlingen, Germany) equipped with a Bio-ATR II accessory. The spectrophotometer was continuously purged with dried air. Spectra were recorded at a spectral resolution of 4 cm^−1 and 120 accumulations were performed per measurement. The final spectra were corrected to the baseline (the final incubation buffer) and rescaled in the amide I area (˜1600 to ˜1700 cm^−1).
The formation of aggregates by STVIIE quickly leads the larger elements to deposit from solution. This hinders circular dichroism studies of STVIIE secondary structure. For this reason Fourier transform infra-red (FTIR) spectroscopy was used instead (FIG. 3f-g). The changes in secondary structure content were followed for 6 hours (FIG. 3f). Then, after 6 hours, when amyloid structures are readily visible (FIG. 3a), the experiment was terminated. This time frame is also chosen given that for nanotechnology applications short incubation periods can be necessary and/or preferable. The peptides spectra are consistent with antiparallel β-sheet/aggregated strands (1675-1695 cm^−1) and β-sheet (1625-1640 cm^−1) secondary structure being present (FIG. 3f). […]

[3] = system: Human H4 neuroglioma cells; assay: LDH release cytotoxicity assay
[4] = biological target: streptavidin (Streptomyces avidinii, UniProt P22629); assay: Binding to free streptavidin by intrinsic tryptophan fluorescence; settings: 0.8 μM streptavidin
From the text: In terms of secondary structure, evaluated via Fourier Transform Infra Red (FITR) spectroscopy (FIG. 5b), the observations echo the results obtained with (non-biotinylated) STVIIE fibrils (confront with FIG. 3f). Addition, via a PEG9 linker, of a biotin moiety to STVIIE N-terminus results in biotin functionalized STVIIE amyloid fibrils. These fibrils show both the […] and the antiparallel cross β-sheet peaks, being quite similar to the spectra obtained with free (non-biotinylated) STVIIE. Then, the activity of the bioactive molecule (biotin) attached to the fibrils was tested, namely the ability to bind its target bridge element molecule (streptavidin), when free in solution (FIG. 5c-g). […] Briefly, the fluorescence intensity spectra of 0.8 μM streptavidin in solution, treated with buffer (FIG. 5c, leftmost graph), free biotin (FIG. 5c, second graph from the left), non-biotinylated free amyloid peptide (FIG. 5c, third from the left) or biotinylated amyloidogenic peptide fibrils (FIG. 5c, rightmost graph) were compared. A drop on the fluorescence signal (decreased quantum yield) accompanied by peak shifting towards the left (blue shift) indicates streptavidin binding to biotin (FIG. 5c). […] The addition of biotinylated peptide to streptavidin produces a similar blue shift of the fluorescence emission maximum (from 340 to 330 nm), as observed when free biotin is added. […]

[5] = Atomic force microscopy of amyloid fibril formation, morphology and dimensions; type: physicochemical; settings: AFM, 2 weeks incubation at physiologic pH
From the text: According to experimental procedures at the host lab^57-59, the samples were placed in poly-1-lysine slides and dried using a vacuum chamber. When fully dried, the samples were rinsed with ultra-pure water and dried with a gentle N2 air flux. A NanoWizard II atomic force microscope (JPK Instruments, Berlin, Germany), mounted on the top of an Axiovert 200 inverted optical microscope (Zeiss, Jena, Germany), was used for the microscopic experiments. The AFM head is equipped with a 5.85-μm z-range linearized piezoelectric scanner and an infrared laser. For the acquisition of the different AFM images, it was used a ACL-50 tip (Applied NanoStructures, Inc., California, USA) with a spring constant between 20-95 N/m and a frequency between 145-230 kHz. Amyloid fibrils were acquired in intermittent (air) mode with a setpoint of between 0.4-0.5 V, a line rate of 0.7-0.8 Hz, an IGain of 20-50 Hz and a PGain of 0.001-0.004. The images acquired were treated afterwards with the JPKSPM Data Processing (JPK Instruments, Berlin, Germany).
The most promising amyloidogenic peptide is typically selected. For this purpose, atomic force microscopy (AFM) was employed. AFM is a technique that can be very useful in the acquisition of surface images with high resolution and sensibility, being therefore suitable for such studies of amyloid fibrils and employed in this analysis. […] Regarding GNNQQNY (FIG. 2, first row from the top), at the start of incubation there are no visible structures. At the end of the incubation period tested (2 weeks), heterogeneous structures are visible. […] In contrast, QVQIIE, ISFLIF and STVIIE peptides show amyloid morphologies at the end of the incubation period tested (FIG. 2). […] This is consistent with the β-sheet content of QVQIIE and ISFLIF at the end of the incubation period, measured via Fourier transform infrared spectroscopy (FIG. 12) and binding profile to Congo Red (FIG. 13). […] As for STVIIE, it forms clear fibril structures in the conditions tested. […]

Molecule: CC[C@H](C)[C@H](N)C(=O)N[C@@H](CO)C(=O)N[C@@H](Cc1ccccc1)C(=O)N[C@@H](CC(C)C)C(=O)N[C@H](C(=O)N[C@@H](Cc1ccccc1)C(=O)O)[C@@H](C)CC [ISFLIF] (H-ISFLIF-OH; N-terminus and C-terminus assumed)
solubility in physiological conditions ([1]; physiological conditions): difficult to dissolve at high concentrations

Molecule: CC[C@H](C)[C@H](NC(=O)[C@@H](NC(=O)[C@@H](NC(=O)[C@@H](N)CO)[C@@H](C)O)C(C)C)C(=O)N[C@H](C(=O)N[C@@H](CCC(=O)O)C(=O)O)[C@@H](C)CC [STVIIE] (H-STVIIE-OH; N-terminus and C-terminus assumed)
time for relative ratio of β-sheet secondary structure to stabilize [2]: less than 3 hours
toxicity to cells (LDH release) ([3]; fibrils at 0.2, 2 and 20 μM, 6 and 24 hours): not toxic; also recorded: not cytotoxic

Molecule: O=C(O)CCCC[C@@H]1SC[C@@H]2NC(=O)N[C@@H]21 [biotin, 5-[(3aS,4S,6aR)-2-oxohexahydro-1H-thieno[3,4-d]imidazol-4-yl]pentanoic acid]
concentration at which the peak shift achieves saturation [4]: ~4 µM
blue shift of streptavidin fluorescence emission peak maximum ([4]; peptide and/or biotin 0 to 13.6 μM): 10 nm

Molecule: Aβ(1-42): Amyloid β peptide (involved in Alzheimer's disease), positive control of fibrillization [reference compound]
morphology at end of incubation [5]: form typical amyloid fibrils

Molecule: GNNQQNY [short amyloidogenic peptide]
morphology at end of incubation [5]: not consistent with the well-defined amyloid fibril morphology
highest final concentration that they were able to be fully dissolved [1]: 1 mg/mL

morphology at end of incubation [5]: amyloid-like gel structure
highest final concentration that they were able to be fully dissolved [1]: 0.55 mg/mL
Molecule: QVQIIE

Molecule: Triton [reference compound]
cell death ([3]; 0.2, 2.0 and 20 μM, 6 to 24 hours, buffer control 10-15%): 100%
